The text below walks through data of article PMC10819458, “Using Pharmacokinetic–Pharmacodynamic Modeling to Study the Main Active Substances of the Anticancer Effect in Mice from Panax ginseng–Ophiopogon japonicus” (Molecules, 2024).

The nature of this series: Lung-tissue pharmacokinetics of PG–OJ components in tumor-bearing mice (UPLC–MS/MS). It is filed as in vivo, BALB/c nude male mice. To be noted: for MRT last: read-out: MRT(0–t) (converted). From the text: This study employed Ultra-Performance Liquid Chromatography–Mass Spectrometry (UPLC–MS/MS) to examine the pharmacokinetic properties of 20 bioactive components in a cell-derived xenograft (CDX) model following oral administration of a 10.2 g/kg PG–OJ extract.
Healthy BALB/c nude male mice (weight: 18–21 g) were purchased from Beijing Huafukang Biotechnology Co., Ltd. (Beijing, China, License Number: SCXK (Jing) 2021-0006). After 3 days of acclimatization, the mice were randomly divided into the control group (CG), model group (MG), and the combined-administration group of P. ginseng and O. japonicus (HM1-HM13) ([…], four-fold clinical-equivalent doses). Subsequently, except for the CG, 0.2 mL (approximately 2 × 10^7 cells) of A549 cell suspension was aspirated with a 1 mL syringe and injected into the right axillary fossa of the model group and drug-administration-group mice. The control-group mice were injected with an equal volume of PBS at the same location. The tumor diameter was measured daily using a caliper. The model was successful when the tumor diameter > 3 mm. The combined-administration group of P. ginseng and O. japonicus was given the corresponding drug orally, once a day, with 0.2 mL/mouse each time. The control group and the model group mice were given the same volume of distilled water, continuously orally for 21 days. During this period, the body weight and tumor volume of the mice were recorded. At the end of the last administration, the mice were […] 0.083, 0.167, 0.25, 0.5, 0.75, 1, 2, 3, 4, 6, 8, 12, 24 h later. After injecting 0.1% pentobarbital sodium, blood was collected from the eye-socket vein, the mice were decapitated, and the tumor and lung tissues were carefully removed.
After homogenizing 50 mg of right-lung-tissue sample, 2 mL of acetonitrile was added to precipitate proteins. The mixture was oscillated for 2 min and then centrifuged for 10 min (12,000 rpm, 4 °C). The supernatant from the new centrifuge tube was collected and dried with nitrogen at room temperature. Finally, the supernatant was redissolved in 50 μL of acetonitrile solution containing 0.1% formic acid. After oscillating for 1 min, another centrifugation step was performed, and the resulting supernatant was used for analysis.
Samples were analyzed on the Vanquish UPLC System (Thermo, Waltham, MA, USA). The Agilent C18 column (4.6 × 150 mm, 4 μm, PN:693970-902T) was selected. The mobile phase was composed of 0.1% formic acid aqueous solution (A) and 0.1% formic acid acetonitrile solution (B). The procedure of gradient elution was as follows: 0–10 min, 95–75% A; 10–25 min, 75–45% A; 25–40 min, 45–30% A; 40–50 min, 30–5% A; 55–55.1 min, 5–95% A; 55.1–60 min, 95% A. The column temperature was set to 30 °C with the flow rate of 0.3 mL/min and the injection volume of 3.0 μL. The mass-spectrometry detection with negative-ion mode was carried out using an Orbitrap Exploris 120 Mass Spectrometer (Thermo, Waltham, MA, USA) and Electrospray ionization (ESI). The sheath-gas-flow rate was […] and the auxiliary-gas-flow rate was […]. The capillary temperature was 325 °C, and the resolution was 120,000 in full scan mode with the mass scan range of 80~1500 m/z. The secondary cracking was performed with HCD at a collision voltage of 30 eV, and unnecessary MS/MS information was removed using the dynamic exclusion method.

Setting [1] is: lung tissue, A549 tumor-bearing mice, intragastric PG–OJ extract 10.2 g/kg (6.8 g/kg elsewhere in the source), mean ± SD, n = 6.
The mark [2] stands for this setting: lung tissue, oral PG–OJ extract.
Setting [3] is: male, BALB/c nude, mouse, lung tissue, po, 10.2 g/kg, lung tissue, A549 tumor-bearing mice, intragastric PG–OJ extract 10.2 g/kg (6.8 g/kg elsewhere in the source), mean ± SD, n = 6, read-out: Tmax (converted).
[4] abbreviates: male, BALB/c nude, mouse, po, lung tissue, A549 tumor-bearing mice, intragastric PG–OJ extract 10.2 g/kg (6.8 g/kg elsewhere in the source), mean ± SD, n = 6, read-out: Cmax.
Where [5] appears, read: male, BALB/c nude, mouse, po, lung tissue, A549 tumor-bearing mice, intragastric PG–OJ extract 10.2 g/kg (6.8 g/kg elsewhere in the source), mean ± SD, n = 6.
The mark [6] stands for this setting: male, BALB/c nude, mouse, po, lung tissue, A549 tumor-bearing mice, intragastric PG–OJ extract 10.2 g/kg (6.8 g/kg elsewhere in the source), mean ± SD, n = 6, read-out: T1/2.
Setting [7] is: male, BALB/c nude, mouse, in vivo, po.
Where [8] appears, read: male, BALB/c nude, mouse, in vivo, po, Tmax.

SMILES strings stand for the structures. Read-outs that look alike come from different tables or passages of the source. Bounds are passed on as bounds.

As for `CC(C)=CCC[C@](C)(O[C@@H]1O[C@H](CO)[C@@H](O)[C@H](O)[C@H]1O)[C@H]1CC[C@]2(C)[C@@H]1[C@H](O)C[C@@H]1[C@@]3(C)CC[C@H](O)C(C)(C)[C@@H]3[C@@H](O[C@@H]3O[C@H](CO)[C@@H](O)[C@H](O)[C@H]3O[C@@H]3O[C@@H](C)[C@H](O)[C@@H](O)[C@H]3O)C[C@]12C` [Ginsenoside Re], under setting [1], the “AUC(0–t)” value was determined as 3815.68 ± 233.30 ng·min/g and the “AUC(0–∞)” value was found to be 3933.20 ± 224.66 ng·min/g. For the same compound, the “time to reach maximum concentration (Cmax) after administration” value (shortened to “time to reach maximum concentration”) under setting [2] was at most 15 min. Besides, the Tmax under setting [3] is 0.0833 h. Under setting [4], the Cmax came to 132 ± 32.9 ng/g. Besides, the MRT last under setting [5] was 1.57 h. Besides, the half-life under setting [6] came to 1.76 ± 0.0727 h.
Consider `CC(C)=CC/C=C(\C)[C@H]1CC[C@]2(C)[C@@H]1[C@H](O)C[C@@H]1[C@@]3(C)CC[C@H](O[C@@H]4O[C@H](CO)[C@@H](O)[C@H](O)[C@H]4O[C@@H]4O[C@H](CO)[C@@H](O)[C@H](O)[C@H]4O)C(C)(C)[C@@H]3CC[C@]12C` [Ginsenoside Rg5], for which, under setting [1], the “AUC(0–t)” value is on record as 1,342,117.43 ± 45,675.73 ng/g·min and the “AUC(0–∞)” value was 1,372,202.28 ± 48,963.33 ng/g·min. The “AUC(0–∞) compared with other components” value (lung tissue, oral PG–OJ extract, in words) is “significantly higher than those of other components”. Moreover, the Tmax under setting [3] was 4 h. Moreover, the Tmax (male, BALB/c nude, mouse, lung tissue, po, 10.2 g/kg, lung tissue, oral PG–OJ extract, read-out: time to reach peak concentration) was determined as 12 h. Moreover, the Cmax under setting [4] amounted to 7970 ± 442 ng/g. For the same compound, the MRT last under setting [5] was 3.07 h. Under setting [6], the half-life turned out to be 2.11 ± 0.157 h. Besides, the “exposure level in lung tissue” value (oral PG–OJ extract, in words) was “highest exposure level”.
`CC(C)=CCC[C@](C)(O)[C@H]1CC[C@]2(C)[C@@H]1[C@H](O)C[C@@H]1[C@@]3(C)CC[C@H](O[C@@H]4O[C@H](CO)[C@@H](O)[C@H](O)[C@H]4O[C@@H]4O[C@H](CO)[C@@H](O)[C@H](O)[C@H]4O)C(C)(C)[C@@H]3CC[C@]12C` [Ginsenoside Rg3]: under setting [1], the “AUC(0–t)” value came out at 1879.87 ± 53.24 ng·min/g, the “AUC(0–∞)” value is listed as 14,133.43 ± 3134.88 ng/g·min, the Cmax was 4.75 ± 0.12 ng/g and the “MRT(0–t)” value was found to be 3.8352 ± 0.0448 h. Besides, under setting [1], the T1/2 is 39.6943 ± 9.3722 h and the Tmax is 0.0833 ± 0 h.
`CC(C)=CCC[C@](C)(O[C@@H]1O[C@H](CO)[C@@H](O)[C@H](O)[C@H]1O)[C@H]1CC[C@]2(C)[C@@H]1[C@H](O)C[C@@H]1[C@@]3(C)CC[C@H](O)C(C)(C)[C@@H]3[C@@H](O)C[C@]12C` [Ginsenoside F1] returned a half-life under setting [7] of 2.24 ± 0.241 h. In addition, the Tmax under setting [8] was 4 h. Also, the “exposure level in lung tissue” value (mouse, in vivo, po) is listed as “extremely low”.
Regarding `CC(C)=CCC[C@](C)(O[C@@H]1O[C@H](CO[C@@H]2OC[C@H](O)[C@H](O)[C@H]2O)[C@@H](O)[C@H](O)[C@H]1O)[C@H]1CC[C@]2(C)[C@@H]1[C@H](O)C[C@@H]1[C@@]3(C)CC[C@H](O[C@@H]4O[C@H](CO)[C@@H](O)[C@H](O)[C@H]4O[C@@H]4O[C@H](CO)[C@@H](O)[C@H](O)[C@H]4O)C(C)(C)[C@@H]3CC[C@]12C` [Ginsenoside Rb2], under setting [1], the “AUC(0–t)” value came out at 3935.63 ± 598.40 ng·min/g and the “AUC(0–∞)” value stood at 6076.50 ± 664.68 ng·min/g. Also, the Cmax under setting [4] stood at 7.2 ± 0.96 ng/g. Under setting [5], the MRT last was 11.9 h. Also, the half-life under setting [6] worked out at 19.9 ± 4.38 h.
For `CC1(C)CC[C@]2(C(=O)O[C@@H]3O[C@H](CO)[C@@H](O)[C@H](O)[C@H]3O)CC[C@]3(C)C(=CC[C@@H]4[C@@]5(C)CC[C@H](O[C@@H]6O[C@H](C(=O)O)[C@@H](O)[C@H](O)[C@H]6O[C@@H]6O[C@H](CO)[C@@H](O)[C@H](O)[C@H]6O)C(C)(C)[C@@H]5CC[C@]43C)[C@@H]2C1` [Ginsenoside Ro], where the note is “mouse, in vivo, po”, the T1/2 turned out to be 4.2077 ± 0.198 h, the Tmax came to 0.2083 ± 0.0482 h and the “time to reach maximum concentration” value is reported as at most 15 min.
The compound `CC(C)=CCC[C@](C)(O)[C@H]1CC[C@]2(C)[C@@H]1[C@H](O)C[C@@H]1[C@@]3(C)CC[C@H](O)C(C)(C)[C@@H]3[C@@H](O[C@@H]3O[C@H](CO)[C@@H](O)[C@H](O)[C@H]3O[C@@H]3O[C@H](CO)[C@@H](O)[C@H](O)[C@H]3O)C[C@]12C` [Ginsenoside Rf] came in with a half-life under setting [7] of 1.28 ± 0.0173 h. Besides, under setting [8], the Tmax is 0.25 h. For the same compound, the “time to reach maximum concentration” value (mouse, in vivo, po) is at most 15 min.
With `CC(C)=CCC[C@](C)(O)[C@H]1CC[C@]2(C)[C@@H]1[C@H](O)C[C@@H]1[C@@]3(C)CC[C@H](O)C(C)(C)[C@@H]3[C@@H](O[C@@H]3O[C@H](CO)[C@@H](O)[C@H](O)[C@H]3O)C[C@]12C` [Ginsenoside Rh1], under setting [1], the “AUC(0–t)” value came to 1303.44 ± 70.16 ng·min/g. For the same compound, the “AUC(0–∞)” value under setting [1] amounted to 1724.14 ± 411.48 ng·min/g. Moreover, the “time to reach maximum concentration” value under setting [2] is at most 15 min. Moreover, the half-life is, setting by setting: (male, BALB/c nude, mouse, in vivo, po, 10.2 g/kg, lung tissue, A549 tumor-bearing mice, intragastric PG–OJ extract 10.2 g/kg (6.8 g/kg elsewhere in the source), mean ± SD, n = 6, read-out: T1/2) 6.97 ± 4.9 h; (male, BALB/c nude, mouse, in vivo, po, 10.2 g/kg, lung tissue, oral PG–OJ extract, read-out: half-life (converted)) 6.9 h. For the same compound, the Cmax (male, BALB/c nude, mouse, in vivo, po, lung tissue, A549 tumor-bearing mice, intragastric PG–OJ extract 10.2 g/kg (6.8 g/kg elsewhere in the source), mean ± SD, n = 6, read-out: Cmax) came out at 8.98 ± 0.2 ng/g. The MRT last (male, BALB/c nude, mouse, in vivo, po, lung tissue, A549 tumor-bearing mice, intragastric PG–OJ extract 10.2 g/kg (6.8 g/kg elsewhere in the source), mean ± SD, n = 6) was 3.18 h. Further, for the setting “male, BALB/c nude, mouse, in vivo, po, lung tissue, A549 tumor-bearing mice, intragastric PG–OJ extract 10.2 g/kg (6.8 g/kg elsewhere in the source), mean ± SD, n = 6, read-out: Tmax (converted)”, the Tmax was 0.208 h. Further, the “exposure level in lung tissue” value (oral PG–OJ extract, in words) was “extremely low”.
